Test results taken from publication PMC10687071 (The Journal of Biological Chemistry, 2023).
Changes are numbered by the printed parent chain.

What was measured:
[1] = target: T1, Y71G mutant EAG1 channels (Mus musculus, UniProt Q60603, Y71G); assay: TEVC recording, imipramine inhibition, Y71G mutant; type: cell-based; conditions: Y71G mutant EAG1 channel, +50 mV
T1 construct: expressed in transfected cells; host or cells: Xenopus laevis oocytes injected with cRNA
T1 sequence (Q60603 1-989 Y71G): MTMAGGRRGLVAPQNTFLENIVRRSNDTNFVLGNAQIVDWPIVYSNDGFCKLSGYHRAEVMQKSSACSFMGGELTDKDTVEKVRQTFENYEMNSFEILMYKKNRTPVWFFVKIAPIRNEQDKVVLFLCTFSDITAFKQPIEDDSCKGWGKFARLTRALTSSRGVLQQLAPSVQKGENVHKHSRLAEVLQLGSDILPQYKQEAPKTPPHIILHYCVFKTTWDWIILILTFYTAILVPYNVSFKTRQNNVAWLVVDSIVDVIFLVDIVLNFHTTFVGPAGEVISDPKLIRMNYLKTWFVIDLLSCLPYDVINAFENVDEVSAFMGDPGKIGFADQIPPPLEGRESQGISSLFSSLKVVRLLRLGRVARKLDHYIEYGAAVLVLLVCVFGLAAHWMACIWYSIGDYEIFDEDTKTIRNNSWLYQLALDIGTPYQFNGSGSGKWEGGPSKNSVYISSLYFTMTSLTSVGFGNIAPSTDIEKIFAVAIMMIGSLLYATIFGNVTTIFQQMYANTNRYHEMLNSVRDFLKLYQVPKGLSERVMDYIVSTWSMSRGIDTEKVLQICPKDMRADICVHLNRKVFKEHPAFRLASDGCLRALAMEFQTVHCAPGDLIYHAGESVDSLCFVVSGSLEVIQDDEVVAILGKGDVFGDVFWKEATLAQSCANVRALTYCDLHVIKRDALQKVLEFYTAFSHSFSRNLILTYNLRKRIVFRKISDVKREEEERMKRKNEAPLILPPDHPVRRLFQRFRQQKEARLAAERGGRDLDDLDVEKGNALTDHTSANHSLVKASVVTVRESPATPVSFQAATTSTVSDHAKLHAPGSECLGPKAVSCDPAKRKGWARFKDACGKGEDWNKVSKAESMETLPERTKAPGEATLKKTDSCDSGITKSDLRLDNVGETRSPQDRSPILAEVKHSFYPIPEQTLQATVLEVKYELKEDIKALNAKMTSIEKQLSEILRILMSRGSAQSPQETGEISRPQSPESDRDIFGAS
Text: (§1) The cDNA encoding wild-type (WT) mouse EAG1 channels in pGH19 vector was kindly provided by G. Robertson (University of Wisconsin-Madison, Madison, WI). The mutant ΔPAS EAG1 channel in pGH19 with the deletion of the PAS domain residues 2 to 130 was generated by Bio Basic Inc and verified by DNA sequencing (Genewiz). Mutant EAG1 channels with single amino acid substitutions were generated by Genewiz and verified by DNA sequencing. cRNA was transcribed using the T7 mMessage mMachine kit (Thermo Fisher Scientific). Defolliculated Xenopus laevis oocytes were purchased from Ecocyte Bioscience or Xenopus1 and injected with the cRNA using a Nanoinject II oocyte injector (Drummond).
(§2) For EAG1 current recordings, oocytes were placed into a handmade chamber containing a bath solution for the current recording. The currents were recorded using a TEVC technique with OC-725C amplifier (Warner Instruments) and pClamp11 software (Molecular Devices). The signals were digitized using Digidata 1550 (Molecular Devices). Patch pipettes were pulled from borosilicate glass and had resistances of 0.7 to 1.5 MΩ. The recording (bath) solution contained 96 mM NaCl, 4 mM KCl, 0.1 mM CaCl2, 1.8 mM MgCl2, and 5 mM HEPES, pH 7.5. The pipette solution contained 3 M KCl. […]

[2] = target: T2, Y71R mutant EAG1 channels (Mus musculus, UniProt Q60603, Y71R); assay: TEVC recording, imipramine inhibition, Y71R mutant; type: cell-based; conditions: Y71R mutant EAG1 channel, +50 mV
T2 construct: expressed in transfected cells; host or cells: Xenopus laevis oocytes injected with cRNA
T2 sequence (Q60603 1-989 Y71R): T1 sequence (Q60603 1-989 Y71G) with G71R
Text: as §1, §2

`CN(C)CCCN1c2ccccc2CCc2ccccc21` [imipramine] showed an IC50 [1] of 26.7 ± 3.2 µM and an IC50 [2] of 43.4 ± 7.5 µM.
